Results reported in PMC8843100, “Development of newly synthesised quinazolinone-based CDK2 inhibitors with potent efficacy against melanoma” (Journal of Enzyme Inhibition and Medicinal Chemistry, 2022).

Assays:
SF-268 = experiment: NCI-60 single dose screen, sulforhodamine B; format: cell-based, human; details: CNS cancer SF-268; single dose 10^−5 M
Procedure: (§1) In this research, all of the newly synthesised quinazolinones were subjected to in vitro anticancer screening by the National Cancer Institute (USA) against 60 different human cell lines including leukaemia, non-small cell lung cancer, colon cancer, CNS cancer, melanoma, ovarian cancer, renal cancer, prostate cancer, and breast cancer. The tested compounds were evaluated at a single dose (10^−5 M). […] Regarding the benzenesulfonamide counterparts, the introduction of an electron-withdrawing group on the benzenesulfonamide moiety increased the inhibitory activity on the glioblastoma cell line SNB-75 as depicted by the chloro derivative 5c (GI% = 63.09) which was higher than that of the unsubstituted derivative 5a (GI% = 40.06) and the methyl derivative 5b (GI% = 33.03).
(§2) 1. Cytotoxicity screening against a panel of 60 human tumor cell lines
(§3) All the compounds were selected for NCI-60 Human Tumor Cell Lines Screen by the Developmental Therapeutics Program (DTP) at the National Cancer Institute (NCI), Maryland, USA. The operation of this screen utilizes 60 different human tumor cell lines, representing leukemia, non-small-cell lung cancer, colon cancer, CNS cancer, melanoma, ovarian cancer, renal cancer, prostate cancer and breas t cancer.
(§4) The compounds were supplied as dry powder and a single concentration is tested in all 60 cell lines at a single dose of 10 µM solution in dimethyl sulfoxide (DMSO) using Sulforhodamine B assay. Briefly, cells are seeded in 96 well plates at an appropriate density and incubated for 1 day. After 1 day, some of the plates are processed to determine the density time zero. To the remaining plates, compounds are added at 10 µM concentration. Plates are incubated a further 2 days, then fixed and staine d with sulphorhodamine B. Growth inhibition is calculated relative to cells without drug treatment and the time zero control. The use of a time zero control allows the determination of cell kill as well as net growth inhibition. […]

PC-3 = experiment: NCI-60 single dose screen, sulforhodamine B; format: cell-based, human; details: Prostate cancer PC-3; single dose 10^−5 M
Procedure: as §1, §2, §3, §4

NCI-H322M = experiment: NCI-60 single dose screen, sulforhodamine B; format: cell-based, human; details: Non-small cell lung cancer NCI-H322M; single dose 10^−5 M
Procedure: as §1, §2, §3, §4

CAKI-1 = experiment: NCI-60 single dose screen, sulforhodamine B; format: cell-based, human; details: Renal cancer CAKI-1; single dose 10^−5 M
Procedure: as §1, §2, §3, §4

HOP-62 = experiment: NCI-60 single dose screen, sulforhodamine B; format: cell-based, human; details: Non-small cell lung cancer HOP-62; single dose 10^−5 M
Procedure: as §1, §2, §3, §4

HOP-92 = experiment: NCI-60 single dose screen, sulforhodamine B; format: cell-based, human; details: Non-small cell lung cancer HOP-92; single dose 10^−5 M
Procedure: as §1, §2, §3, §4

786-0 = experiment: NCI-60 single dose screen, sulforhodamine B; format: cell-based, human; details: Renal cancer 786-0; single dose 10^−5 M
Procedure: as §1, §2, §3, §4

BT-549 = experiment: NCI-60 single dose screen, sulforhodamine B; format: cell-based, human; details: Breast cancer BT-549; single dose 10^−5 M
Procedure: as §1, §2, §3, §4

KM12 = experiment: NCI-60 single dose screen, sulforhodamine B; format: cell-based, human; details: Colon cancer KM12; single dose 10^−5 M
Procedure: as §1, §2, §3, §4

EKVX = experiment: NCI-60 single dose screen, sulforhodamine B; format: cell-based, human; details: Non-small cell lung cancer EKVX; single dose 10^−5 M
Procedure: as §1, §2, §3, §4

HS 578T = experiment: NCI-60 single dose screen, sulforhodamine B; format: cell-based, human; details: Breast cancer HS 578T; single dose 10^−5 M
Procedure: as §1, §2, §3, §4

SR = experiment: NCI-60 single dose screen, sulforhodamine B; format: cell-based, human; details: Leukaemia SR; single dose 10^−5 M
Procedure: as §1, §2, §3, §4

OVCAR-4 = experiment: NCI-60 single dose screen, sulforhodamine B; format: cell-based, human; details: Ovarian cancer OVCAR-4; single dose 10^−5 M
Procedure: as §1, §2, §3, §4

HCC-2998 = experiment: NCI-60 single dose screen, sulforhodamine B; format: cell-based, human; details: Colon cancer HCC-2998; single dose 10^−5 M
Procedure: as §1, §2, §3, §4

OVCAR-8 = experiment: NCI-60 single dose screen, sulforhodamine B; format: cell-based, human; details: Ovarian cancer OVCAR-8; single dose 10^−5 M
Procedure: as §1, §2, §3, §4

NCI-H460 = experiment: NCI-60 single dose screen, sulforhodamine B; format: cell-based, human; details: Non-small cell lung cancer NCI-H460; single dose 10^−5 M
Procedure: as §1, §2, §3, §4

UACC-257 = experiment: NCI-60 single dose screen, sulforhodamine B; format: cell-based, human; details: Melanoma UACC-257; single dose 10^−5 M
Procedure: as §1, §2, §3, §4

NCI-H522 = experiment: NCI-60 single dose screen, sulforhodamine B; format: cell-based, human; details: Non-small cell lung cancer NCI-H522; single dose 10^−5 M
Procedure: as §1, §2, §3, §4

MALME-3M = experiment: NCI-60 single dose screen, sulforhodamine B; format: cell-based, human; details: Melanoma MALME-3M; single dose 10^−5 M
Procedure: as §1, §2, §3, §4

CCRF-CEM = experiment: NCI-60 single dose screen, sulforhodamine B; format: cell-based, human; details: Leukaemia CCRF-CEM; single dose 10^−5 M
Procedure: as §1, §2, §3, §4

U251 = experiment: NCI-60 single dose screen, sulforhodamine B; format: cell-based, human; details: CNS cancer U251; single dose 10^−5 M
Procedure: as §1, §2, §3, §4

A498 = experiment: NCI-60 single dose screen, sulforhodamine B; format: cell-based, human; details: Renal cancer A498; single dose 10^−5 M
Procedure: as §1, §2, §3, §4

OVCAR-3 = experiment: NCI-60 single dose screen, sulforhodamine B; format: cell-based, human; details: Ovarian cancer OVCAR-3; single dose 10^−5 M
Procedure: as §1, §2, §3, §4

SN12C = experiment: NCI-60 single dose screen, sulforhodamine B; format: cell-based, human; details: Renal cancer SN12C; single dose 10^−5 M
Procedure: as §1, §2, §3, §4

A549/ATCC = experiment: NCI-60 single dose screen, sulforhodamine B; format: cell-based, human; details: Non-small cell lung cancer A549/ATCC; single dose 10^−5 M
Procedure: as §1, §2, §3, §4

T-47D = experiment: NCI-60 single dose screen, sulforhodamine B; format: cell-based, human; details: Breast cancer T-47D; single dose 10^−5 M
Procedure: as §1, §2, §3, §4

TK-10 = experiment: NCI-60 single dose screen, sulforhodamine B; format: cell-based, human; details: Renal cancer TK-10; single dose 10^−5 M
Procedure: as §1, §2, §3, §4

ACHN = experiment: NCI-60 single dose screen, sulforhodamine B; format: cell-based, human; details: Renal cancer ACHN; single dose 10^−5 M
Procedure: as §1, §2, §3, §4

HT29 = experiment: NCI-60 single dose screen, sulforhodamine B; format: cell-based, human; details: Colon cancer HT29; single dose 10^−5 M
Procedure: as §1, §2, §3, §4

NCI-H23 = experiment: NCI-60 single dose screen, sulforhodamine B; format: cell-based, human; details: Non-small cell lung cancer NCI-H23; single dose 10^−5 M
Procedure: as §1, §2, §3, §4

SK-MEL-5 = experiment: NCI-60 single dose screen, sulforhodamine B; format: cell-based, human; details: Melanoma SK-MEL-5; single dose 10^−5 M
Procedure: as §1, §2, §3, §4

| Structure (SMILES) | melting point [°C] | GI% at 10^−5 M (SF-268) | GI% at 10^−5 M (PC-3) | GI% at 10^−5 M (NCI-H322M) | GI% at 10^−5 M (CAKI-1) | GI% at 10^−5 M (HOP-62) | GI% at 10^−5 M (HOP-92) | GI% at 10^−5 M (786-0) | GI% at 10^−5 M (BT-549) | GI% at 10^−5 M (KM12) | GI% at 10^−5 M (EKVX) | GI% at 10^−5 M (HS 578T) | GI% at 10^−5 M (SR) | GI% at 10^−5 M (OVCAR-4) | GI% at 10^−5 M (HCC-2998) | GI% at 10^−5 M (OVCAR-8) | GI% at 10^−5 M (NCI-H460) | GI% at 10^−5 M (UACC-257) | GI% at 10^−5 M (NCI-H522) [%] | GI% at 10^−5 M (MALME-3M) | also measured |
| --- | --- | --- | --- | --- | --- | --- | --- | --- | --- | --- | --- | --- | --- | --- | --- | --- | --- | --- | --- | --- | --- |
| COc1cc(C=Nn2c(COc3ccccc3)nc3ccccc3c2=O)ccc1O [Compound 6a, 3-((4-hydroxy-3-methoxybenzylidene)amino)-2-(phenoxymethyl)quinazolin-4(3H)-one] | 191 to 193 | – (– means GI < 10%) | – (– means GI < 10%) | – (– means GI < 10%) | – (– means GI < 10%) | – (– means GI < 10%) | – (– means GI < 10%) | – (– means GI < 10%) | – (– means GI < 10%) | – (– means GI < 10%) | – (– means GI < 10%) | – (– means GI < 10%) | – (– means GI < 10%) | – (– means GI < 10%) | – (– means GI < 10%) | – (– means GI < 10%) | – (– means GI < 10%) | – (– means GI < 10%) | 16.82 | – (– means GI < 10%) | GI% at 10^−5 M (CCRF-CEM): – (– means GI < 10%); GI% at 10^−5 M (U251): – (– means GI < 10%); GI% at 10^−5 M (A498): – (– means GI < 10%); GI% at 10^−5 M (OVCAR-3): – (– means GI < 10%); GI% at 10^−5 M (SN12C): 10.37%; GI% at 10^−5 M (A549/ATCC): – (– means GI < 10%); GI% at 10^−5 M (T-47D): – (– means GI < 10%); GI% at 10^−5 M (TK-10): – (– means GI < 10%); GI% at 10^−5 M (ACHN): – (– means GI < 10%); GI% at 10^−5 M (HT29): – (– means GI < 10%); GI% at 10^−5 M (NCI-H23): – (– means GI < 10%); GI% at 10^−5 M (SK-MEL-5): – (– means GI < 10%) |
| O=c1c2ccccc2nc(COc2ccccc2)n1N=CC=Cc1ccccc1 [Compound 6b, 2-(phenoxymethyl)-3-((3-phenylallylidene)amino)quinazolin-4(3H)-one] | 211 to 213 | – (– means GI < 10%) | 10.39% | – (– means GI < 10%) | – (– means GI < 10%) | – (– means GI < 10%) | – (– means GI < 10%) | – (– means GI < 10%) | – (– means GI < 10%) | – (– means GI < 10%) | 13.78% | – (– means GI < 10%) | 14.34% | 10.01% | – (– means GI < 10%) | – (– means GI < 10%) | – (– means GI < 10%) | – (– means GI < 10%) | 18.6 | – (– means GI < 10%) | GI% at 10^−5 M (CCRF-CEM): 15.66%; GI% at 10^−5 M (U251): – (– means GI < 10%); GI% at 10^−5 M (A498): – (– means GI < 10%); GI% at 10^−5 M (OVCAR-3): – (– means GI < 10%); GI% at 10^−5 M (SN12C): 12.39%; GI% at 10^−5 M (A549/ATCC): – (– means GI < 10%); GI% at 10^−5 M (T-47D): – (– means GI < 10%); GI% at 10^−5 M (TK-10): – (– means GI < 10%); GI% at 10^−5 M (ACHN): – (– means GI < 10%); GI% at 10^−5 M (HT29): – (– means GI < 10%); GI% at 10^−5 M (NCI-H23): – (– means GI < 10%); GI% at 10^−5 M (SK-MEL-5): – (– means GI < 10%) |
| CN1CCN(CC(=O)Nn2c(COc3ccccc3)nc3ccccc3c2=O)CC1 [Compound 8a, 2–(4-methylpiperazin-1-yl)-N-(4-oxo-2-(phenoxymethyl)quinazolin-3(4H)-yl)acetamide] | 158 to 160 | – (– means GI < 10%) | – (– means GI < 10%) | – (– means GI < 10%) | 28.85% | – (– means GI < 10%) | – (– means GI < 10%) | – (– means GI < 10%) | – (– means GI < 10%) | 55.03% | 13.93% | 13.94% | 69.55% | – (– means GI < 10%) | 10.06% | – (– means GI < 10%) | – (– means GI < 10%) | – (– means GI < 10%) | 24.6 | 20.47% | GI% at 10^−5 M (CCRF-CEM): 10.65%; GI% at 10^−5 M (U251): 18.55%; GI% at 10^−5 M (A498): 18.24%; GI% at 10^−5 M (OVCAR-3): – (– means GI < 10%); GI% at 10^−5 M (SN12C): – (– means GI < 10%); GI% at 10^−5 M (A549/ATCC): – (– means GI < 10%); GI% at 10^−5 M (T-47D): 32.2%; GI% at 10^−5 M (TK-10): – (– means GI < 10%); GI% at 10^−5 M (ACHN): – (– means GI < 10%); GI% at 10^−5 M (HT29): 26.89%; GI% at 10^−5 M (NCI-H23): – (– means GI < 10%); GI% at 10^−5 M (SK-MEL-5): 17.11% |
